Tests used:
Assay in all cases: relative viability (nuclei count vs DMSO), 5 days (fraction); higher = more cells survive
CAP-232 = compound: C[C@H]([C@@H](C(=O)N)NC(=O)[C@@H]1CSSC[C@@H](C(=O)N[C@H](C(=O)N[C@@H](C(=O)N[C@H](C(=O)N1)CCCCN)CC2=CNC3=CC=CC=C32)CC4=CC=C(C=C4)O)NC(=O)[C@@H](CC5=CC=CC=C5)N)O [CAP-232]
Procedure, shortened: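 Lung cancer cell lines were seeded into 1536-well plates, kept overnight at 37 °C and pinned with five library-drug doses (not always all listed) spaced by √10. After 5 days, nuclei were Hoechst-stained, imaged at 4× and counted with MetaXpress. Viability is treated-well nuclei over vehicle-well nuclei, taken as a median across plates. Plates needed control CV below 25% and at least one doubling.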

CAP-232 + AZD7762 = compound: C[C@H]([C@@H](C(=O)N)NC(=O)[C@@H]1CSSC[C@@H](C(=O)N[C@H](C(=O)N[C@@H](C(=O)N[C@H](C(=O)N1)CCCCN)CC2=CNC3=CC=CC=C32)CC4=CC=C(C=C4)O)NC(=O)[C@@H](CC5=CC=CC=C5)N)O [CAP-232] + NC(=O)Nc1cc(-c2cccc(F)c2)sc1C(=O)N[C@H]1CCCNC1 [AZD7762] (partner 0.2 µM)
Procedure, shortened: (§1)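 Lung cancer cell lines in 1536-well plates were dosed by pin tool the day after seeding, either with one drug alone or with a fixed anchor-drug dose plus five library-drug doses (not always all listed) in √10 steps. After 5 days, cells were fixed and their nuclei stained in one step (final 0.05% Triton X-100, 1% formaldehyde, 1 ug/ml Hoechst), then counted on 4× images. Relative viability is the nuclei count in treated wells divided by that in vehicle wells. Values are medians of duplicate plates.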

CAP-232 + Lapatinib = compound: C[C@H]([C@@H](C(=O)N)NC(=O)[C@@H]1CSSC[C@@H](C(=O)N[C@H](C(=O)N[C@@H](C(=O)N[C@H](C(=O)N1)CCCCN)CC2=CNC3=CC=CC=C32)CC4=CC=C(C=C4)O)NC(=O)[C@@H](CC5=CC=CC=C5)N)O [CAP-232] + CS(=O)(=O)CCNCc1ccc(-c2ccc3ncnc(Nc4ccc(OCc5cccc(F)c5)c(Cl)c4)c3c2)o1 [Lapatinib] (partner 2 µM)
Procedure, shortened: as §1

CAP-232 + Trametinib = compound: C[C@H]([C@@H](C(=O)N)NC(=O)[C@@H]1CSSC[C@@H](C(=O)N[C@H](C(=O)N[C@@H](C(=O)N[C@H](C(=O)N1)CCCCN)CC2=CNC3=CC=CC=C32)CC4=CC=C(C=C4)O)NC(=O)[C@@H](CC5=CC=CC=C5)N)O [CAP-232] + CC(=O)Nc1cccc(-n2c(=O)n(C3CC3)c(=O)c3c(Nc4ccc(I)cc4F)n(C)c(=O)c(C)c32)c1 [Trametinib] (partner 0.02 µM)
Procedure, shortened: as §1

CAP-232 + Vorinostat = compound: C[C@H]([C@@H](C(=O)N)NC(=O)[C@@H]1CSSC[C@@H](C(=O)N[C@H](C(=O)N[C@@H](C(=O)N[C@H](C(=O)N1)CCCCN)CC2=CNC3=CC=CC=C32)CC4=CC=C(C=C4)O)NC(=O)[C@@H](CC5=CC=CC=C5)N)O [CAP-232] + O=C(CCCCCCC(=O)Nc1ccccc1)NO [Vorinostat] (partner 1 µM)
Procedure, shortened: as §1

Cell Line	relative viability (CAP-232; 0.4 µM)	relative viability (CAP-232; 1.265 µM)	relative viability (CAP-232; 4 µM)	relative viability (CAP-232; 12.65 µM)	relative viability (CAP-232 + AZD7762; first compound 0.4 µM)	relative viability (CAP-232 + AZD7762; first compound 4 µM)	relative viability (CAP-232 + AZD7762; first compound 12.65 µM)	relative viability (CAP-232 + Lapatinib; first compound 0.4 µM)	relative viability (CAP-232 + Lapatinib; first compound 1.265 µM)	relative viability (CAP-232 + Lapatinib; first compound 4 µM)	relative viability (CAP-232 + Lapatinib; first compound 12.65 µM)	relative viability (CAP-232 + Trametinib; first compound 0.4 µM)	relative viability (CAP-232 + Trametinib; first compound 1.265 µM)	relative viability (CAP-232 + Trametinib; first compound 4 µM)	relative viability (CAP-232 + Trametinib; first compound 12.65 µM)	relative viability (CAP-232 + Vorinostat; first compound 0.4 µM)	relative viability (CAP-232 + Vorinostat; first compound 1.265 µM)	relative viability (CAP-232 + Vorinostat; first compound 4 µM)	relative viability (CAP-232 + Vorinostat; first compound 12.65 µM)	relative viability (CAP-232 + AZD7762; first compound 1.265 µM)
NCI-H1703	0.854	0.917	0.961	0.764	0.124	0.143	0.146	1.44	1.01	1.21	0.882	–	–	–	–	–	–	–	–	–
COR-L 105	1.05	0.816	0.992	0.573	–	–	–	0.333	0.376	0.354	0.33	0.371	0.414	0.395	0.377	0.871	0.719	1	0.637	–
NCI-H661	0.948	1.04	1.04	0.984	–	–	–	0.496	0.592	0.465	0.344	0.523	0.536	0.578	0.377	0.848	0.848	0.875	0.752	–
NCI-H1650	0.986	0.849	0.932	0.27	–	–	–	0.737	0.788	0.966	0.214	0.631	0.557	0.54	0.215	0.645	0.514	0.622	0.183	–
UMC-11	0.917	0.914	1.08	0.95	–	–	–	1.02	0.907	1.14	1.08	0.65	0.546	0.719	0.456	0.357	0.413	0.344	0.272	–
LCLC-103H	1.13	0.984	1.08	0.967	0.89	0.891	0.747	–	–	–	–	0.662	0.666	0.723	0.703	0.875	0.729	0.827	0.825	0.792
NCI-H2342	0.952	0.997	1.08	0.977	0.478	0.586	0.574	–	–	–	–	0.788	0.746	0.766	0.787	0.688	0.647	0.623	0.742	0.539
NCI-H520	1.09	1.01	1.07	0.928	–	–	–	0.961	0.858	0.965	0.684	0.559	0.637	0.799	0.521	0.71	0.695	0.75	0.577	–
SW 900	0.962	0.881	0.953	0.845	0.666	0.515	0.547	–	–	–	–	0.75	0.93	0.677	0.767	0.727	0.453	0.432	0.429	0.604
NCI-H522	0.967	0.982	1.01	0.916	0.876	0.926	1.04	–	–	–	–	0.772	0.856	0.607	0.726	0.971	0.9	0.93	0.867	1.08
NCI-H2023	0.998	0.883	1.07	0.329	–	–	–	0.743	0.761	0.797	0.38	0.656	0.555	0.48	0.205	0.599	0.426	0.645	0.251	–
A549	0.999	0.895	1.14	0.597	–	–	–	1.1	1	1.05	0.42	–	–	–	–	–	–	–	–	–
NCI-H441	1.07	0.969	1.07	0.921	1.03	1.22	0.922	–	–	–	–	0.431	0.41	0.479	0.501	0.879	0.824	0.936	0.77	1.16
NCI-H2228	1.23	0.976	1.05	0.829	–	–	–	1.32	0.907	1.66	0.904	0.473	0.523	0.715	0.414	0.657	0.389	0.597	0.709	–
SK-LU-1	1.09	1.07	1.12	0.9	–	–	–	0.869	0.809	0.8	0.979	0.45	0.477	0.717	0.492	0.744	0.792	0.761	0.591	–
NCI-H1792	1.44	0.775	0.878	0.777	0.892	0.793	0.757	1.48	0.917	0.95	0.856	0.516	0.443	0.474	0.415	–	–	–	–	0.715
IA-LM	1.02	0.911	1.07	0.508	–	–	–	0.79	0.705	0.928	0.292	–	–	–	–	0.821	1.01	0.939	0.822	–
NCI-H1563	0.987	0.927	0.95	0.657	–	–	–	1.09	0.862	1.07	0.635	–	–	–	–	–	–	–	–	–

— the supplement of paper PMC10307832
